Results: the supplement of paper PMC8617591

Tests used:
[1] = tested on: Mycobacterium tuberculosis Erdman (autoluminescent); experiment: AUC25, normalised area under dose response up to IC25 (three-drug combination) (fraction (0-1)); higher = more potent at low dose
Experimental: (§1)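 DiaMOND equipotent three-drug combination dose responses (10 doses, 1.5- or 2-fold spacing, centred on IC90) against autoluminescent M. tuberculosis Erdman in 8 in vitro models. Read-out is OD600, or luminescence for the intracellular and dormancy models, normalised to untreated wells. Hill-fit Einf, AUC25 and GRinf are potency metrics; FIC50 and FIC90 are total Loewe fractional inhibitory concentrations as log2 (negative = synergy).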

[2] = tested on: Mycobacterium tuberculosis Erdman (autoluminescent); experiment: GRinf, maximum normalised growth rate inhibition (three-drug combination) (unitless (-1 to 1)); higher = less effect (negative = killing)
Experimental: as §1

[3] = tested on: Mycobacterium tuberculosis Erdman (autoluminescent); experiment: total FIC50 (Loewe) at 50% inhibition, three-drug combination (log2); higher = more antagonistic
Experimental: as §1

[4] = tested on: Mycobacterium tuberculosis Erdman (autoluminescent); experiment: total FIC90 (Loewe) at 90% inhibition, three-drug combination (log2); higher = more antagonistic
Experimental: as §1

[5] = tested on: Mycobacterium tuberculosis Erdman (autoluminescent); experiment: Einf, fitted maximum growth inhibition of three-drug combination (fraction); higher = stronger maximal inhibition
Experimental: as §1

COc1nc2ccc(Br)cc2cc1[C@@H](c1ccccc1)[C@@](O)(CCN(C)C)c1cccc2ccccc12 [bedaquiline] + O=[N+]([O-])c1cn2c(n1)OC[C@@H](OCc1ccc(OC(F)(F)F)cc1)C2 [pretomanid] + NC(=O)c1cnccn1 [pyrazinamide]
Settings	AUC25, [1]	Einf, [5]	GRinf, [2]	total FIC50, [3]	total FIC90, [4]
in vitro model: acidic pH 5.7, time point: constant (~7 days, model-specific)	0.0919	0.881	-0.623	0.152	-0.764
in vitro model: acidic pH 5.7, time point: terminal (~4-5 doublings, model-specific)	0.0867	0.983	-0.421	0.197	0.0646
in vitro model: intracellular J774, time point: constant = terminal	–	0.972	-0.386	–	0.176

Settings	AUC25, [1]	Einf, [5]	GRinf, [2]	total FIC50, [3]	total FIC90, [4]
in vitro model: butyrate, time point: constant (~7 days, model-specific)	0.119	0.946	-0.193	-0.0189	1.37
in vitro model: butyrate, time point: terminal (~4-5 doublings, model-specific)	0.102	0.978	-0.539	0.212	1.21
in vitro model: cholesterol 0.05 mM, time point: constant (~7 days, model-specific)	0.115	0.748	-0.231	–	–
in vitro model: cholesterol 0.05 mM, time point: terminal (~4-5 doublings, model-specific)	0.106	0.909	-0.185	0.657	–
in vitro model: cholesterol-high 0.2 mM, time point: constant (~7 days, model-specific)	0.0759	0.934	-0.252	0.548	–
in vitro model: cholesterol-high 0.2 mM, time point: terminal (~4-5 doublings, model-specific)	0.0678	0.998	-0.58	0.646	0.318
in vitro model: dormancy (butyrate + nitrate, low O2), time point: constant (~7 days, model-specific)	0.043	0.896	0.257	-0.949	-1.45
in vitro model: dormancy (butyrate + nitrate, low O2), time point: terminal (~4-5 doublings, model-specific)	0.0578	0.983	-0.0996	-1.05	-1.31
in vitro model: standard 7H9 glycerol, time point: constant = terminal	0.0709	0.957	-0.0903	-0.132	–
in vitro model: valerate, time point: constant (~7 days, model-specific)	0.0952	0.866	-0.0433	0.178	–
in vitro model: valerate, time point: terminal (~4-5 doublings, model-specific)	0.062	0.938	-0.0146	0.143	-0.0602

COc1c(N2C[C@@H]3CCCN[C@@H]3C2)c(F)cc2c(=O)c(C(=O)O)cn(C3CC3)c12 [moxifloxacin] + O=[N+]([O-])c1cn2c(n1)OC[C@@H](OCc1ccc(OC(F)(F)F)cc1)C2 [pretomanid] + NC(=O)c1cnccn1 [pyrazinamide]
Settings	AUC25, [1]	Einf, [5]	GRinf, [2]	total FIC50, [3]	total FIC90, [4]
in vitro model: acidic pH 5.7, time point: constant (~7 days, model-specific)	0.0694	0.831	-0.227	-0.148	–
in vitro model: acidic pH 5.7, time point: terminal (~4-5 doublings, model-specific)	0.0654	0.956	-0.278	0.329	-0.227
in vitro model: intracellular J774, time point: constant = terminal	–	0.967	-0.384	–	0.419

Settings	AUC25, [1]	Einf, [5]	GRinf, [2]	total FIC50, [3]	total FIC90, [4]
in vitro model: butyrate, time point: constant (~7 days, model-specific)	0.111	0.909	0.0413	0.152	1.77
in vitro model: butyrate, time point: terminal (~4-5 doublings, model-specific)	0.0867	0.967	-0.0495	0.235	0.86
in vitro model: cholesterol 0.05 mM, time point: constant (~7 days, model-specific)	0.128	0.753	-0.295	–	–
in vitro model: cholesterol 0.05 mM, time point: terminal (~4-5 doublings, model-specific)	0.102	0.926	-0.334	1.11	–
in vitro model: cholesterol-high 0.2 mM, time point: constant (~7 days, model-specific)	0.0858	0.914	-0.29	0.415	–
in vitro model: cholesterol-high 0.2 mM, time point: terminal (~4-5 doublings, model-specific)	0.0802	1	-0.594	0.654	0.481
in vitro model: dormancy (butyrate + nitrate, low O2), time point: constant (~7 days, model-specific)	0.0852	0.871	0.199	0.104	-0.0729
in vitro model: dormancy (butyrate + nitrate, low O2), time point: terminal (~4-5 doublings, model-specific)	0.0687	0.982	-0.232	0.195	0.876
in vitro model: standard 7H9 glycerol, time point: constant = terminal	0.071	0.972	-0.151	–	–
in vitro model: valerate, time point: constant (~7 days, model-specific)	0.0976	0.89	0.0242	-0.452	–
in vitro model: valerate, time point: terminal (~4-5 doublings, model-specific)	0.0676	0.945	0.00495	0.11	-0.163

CC[C@@H](CO)NCCN[C@@H](CC)CO [ethambutol] + NNC(=O)c1ccncc1 [isoniazid] + CO[C@H]1/C=C/O[C@@]2(C)Oc3c(C)c(O)c4c(O)c(c(/C=N/N5CCN(C6CCCC6)CC5)c(O)c4c3C2=O)NC(=O)/C(C)=C\C=C\[C@H](C)[C@H](O)[C@@H](C)[C@@H](O)[C@@H](C)[C@H](OC(C)=O)[C@@H]1C [rifapentine]
Settings	AUC25, [1]	Einf, [5]	GRinf, [2]	total FIC50, [3]	total FIC90, [4]
in vitro model: acidic pH 5.7, time point: constant (~7 days, model-specific)	0.116	0.926	-0.233	-0.0354	–
in vitro model: acidic pH 5.7, time point: terminal (~4-5 doublings, model-specific)	0.0443	0.974	-0.12	0.316	-0.0587
in vitro model: intracellular J774, time point: constant = terminal	–	0.961	-0.299	–	-1.77

Settings	AUC25, [1]	Einf, [5]	GRinf, [2]	total FIC50, [3]	total FIC90, [4]
in vitro model: butyrate, time point: constant (~7 days, model-specific)	0.0656	0.919	-0.00839	0.419	–
in vitro model: butyrate, time point: terminal (~4-5 doublings, model-specific)	0.0504	0.961	0.0115	0.431	-0.175
in vitro model: cholesterol 0.05 mM, time point: constant (~7 days, model-specific)	0.0782	0.62	0.0218	0.251	–
in vitro model: cholesterol 0.05 mM, time point: terminal (~4-5 doublings, model-specific)	0.0679	0.705	0.236	0.672	–
in vitro model: cholesterol-high 0.2 mM, time point: constant (~7 days, model-specific)	0.0261	0.963	-0.465	1.28	–
in vitro model: cholesterol-high 0.2 mM, time point: terminal (~4-5 doublings, model-specific)	0.0378	1	-0.581	1.47	1.31
in vitro model: dormancy (butyrate + nitrate, low O2), time point: constant (~7 days, model-specific)	0.123	0.85	0.351	0.273	–
in vitro model: dormancy (butyrate + nitrate, low O2), time point: terminal (~4-5 doublings, model-specific)	0.118	0.99	-0.216	0.00837	0.792
in vitro model: standard 7H9 glycerol, time point: constant = terminal	0.0469	0.904	0.0971	0.347	–
in vitro model: valerate, time point: constant (~7 days, model-specific)	0.0468	0.866	0.0486	0.524	–
in vitro model: valerate, time point: terminal (~4-5 doublings, model-specific)	0.0336	0.929	0.0406	0.609	-0.125
